Experimental data: PubChem BioAssay AID248 (DTP/NCI, 2004)
“And” between values parts separate entries of the source, which are not always exact repeats. Equal values may be shown once. Inconclusive results and toxic doses are left out. No stated cut-off is given here; in the data, active means T/C of 150% or more; inactive means T/C below 125%.

Tested on: L1210 leukemia ip in BDF1 mice, survival T/C
Test: NCI In Vivo Anticancer Drug Screen. Data for tumor model L1210 Leukemia (intraperitoneal) in B6D2F1 (BDF1) mice
Conditions: endpoint: mean survival time, higher = longer survival
Summary of the method: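 Mice bearing the transplanted tumor received compound or vehicle. Survival of the treated group was divided by that of the vehicle-treated control group to give the ratio.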

[1] = dose: 100.0 mg/kg/injection, schedule: Q01DX001 (ip), vehicle: saline
[2] = dose: 200.0 mg/kg/injection, schedule: Q01DX001 (ip), vehicle: saline
[3] = dose: 400.0 mg/kg/injection, schedule: Q01DX001 (ip), vehicle: saline
[4] = dose: 25.0 mg/kg/injection, schedule: Q01DX009 (ip), vehicle: saline with Tween-80
[5] = dose: 50.0 mg/kg/injection, schedule: Q01DX009 (ip), vehicle: saline with Tween-80
[6] = dose: 100.0 mg/kg/injection, schedule: Q01DX009 (ip), vehicle: saline with Tween-80
[7] = dose: 100.0 mg/kg/injection, schedule: Q04DX003 (ip), vehicle: saline with Tween-80
[8] = dose: 100.0 mg/kg/injection, schedule: Q01DX001 (ip), vehicle: carboxymethylcellulose (CMC)
[9] = dose: 200.0 mg/kg/injection, schedule: Q01DX001 (ip), vehicle: carboxymethylcellulose (CMC)
[10] = dose: 400.0 mg/kg/injection, schedule: Q01DX001 (ip), vehicle: carboxymethylcellulose (CMC)
[11] = dose: 100.0 mg/kg/injection, schedule: Q04DX003 (ip), vehicle: saline
[12] = dose: 200.0 mg/kg/injection, schedule: Q04DX003 (ip), vehicle: saline
[13] = dose: 400.0 mg/kg/injection, schedule: Q04DX003 (ip), vehicle: saline
[14] = dose: 50.0 mg/kg/injection, schedule: Q01DX009 (ip), vehicle: saline
[15] = dose: 100.0 mg/kg/injection, schedule: Q01DX009 (ip), vehicle: saline
[16] = dose: 200.0 mg/kg/injection, schedule: Q01DX009 (ip), vehicle: saline
[17] = dose: 50.0 mg/kg/injection, schedule: Q01DX009 (ip), vehicle: Klucel (hydroxypropylcellulose) (HPC)
[18] = dose: 100.0 mg/kg/injection, schedule: Q01DX009 (ip), vehicle: Klucel (hydroxypropylcellulose) (HPC)
[19] = dose: 200.0 mg/kg/injection, schedule: Q01DX009 (ip), vehicle: Klucel (hydroxypropylcellulose) (HPC)
[20] = dose: 100.0 mg/kg/injection, schedule: Q04DX003 (ip), vehicle: Klucel (hydroxypropylcellulose) (HPC)
[21] = dose: 200.0 mg/kg/injection, schedule: Q04DX003 (ip), vehicle: Klucel (hydroxypropylcellulose) (HPC)
[22] = dose: 200.0 mg/kg/injection, schedule: Q01DX009 (ip), vehicle: saline with Tween-80
[23] = dose: 75.0 mg/kg/injection, schedule: Q01DX001 (ip), vehicle: saline

Measured: T/C

COC(=O)C(C)[P+](c1ccccc1)(c1ccccc1)c1ccccc1 (stereo unspecified)
inactive: dose: 1.25 mg/kg/injection, schedule: Q01DX009 (ip), vehicle: saline 108 % of control | dose: 1.65 mg/kg/injection, schedule: Q01DX009 (ip), vehicle: saline 104 % of control and 114 % of control | dose: 2.5 mg/kg/injection, schedule: Q01DX001 (ip), vehicle: saline 96 % of control | dose: 2.5 mg/kg/injection, schedule: Q01DX009 (ip), vehicle: saline 107 % of control and 119 % of control | dose: 3.75 mg/kg/injection, schedule: Q01DX009 (ip), vehicle: saline 109 % of control and 110 % of control | dose: 5.0 mg/kg/injection, schedule: Q01DX001 (ip), vehicle: saline 110 % of control | dose: 5.0 mg/kg/injection, schedule: Q01DX009 (ip), vehicle: saline 97 % of control

CC1=NN(c2ccccc2)C(=O)C1N=Nc1ccc([As](=O)(O)O)c(O)c1 (stereo unspecified)
inactive: [1] 96 % of control | [2] 102 % of control | [3] 100 % of control

CC(C)(C[NH-])C[NH-].CC(C)(C[NH-])C[NH-].CC(C)(C[NH-])C[NH-].[Co]
inactive: dose: 48.0 mg/kg/injection, schedule: Q01DX Z (ip), vehicle: saline 121 % of control | dose: 73.0 mg/kg/injection, schedule: Q01DX Z (ip), vehicle: saline 121 % of control | dose: 110.0 mg/kg/injection, schedule: Q01DX Z (ip), vehicle: saline 119 % of control | dose: 165.0 mg/kg/injection, schedule: Q01DX Z (ip), vehicle: saline 116 % of control

CCOCN1CCCC1
inactive: [4] 101 % of control | [5] 96 % of control | dose: 50.0 mg/kg/injection, schedule: Q04DX003 (ip), vehicle: saline with Tween-80 91 % of control | dose: 100.0 mg/kg/injection, schedule: Q01DX001 (ip), vehicle: saline with Tween-80 104 % of control | [6] 95 % of control | [7] 103 % of control | dose: 200.0 mg/kg/injection, schedule: Q01DX001 (ip), vehicle: saline with Tween-80 110 % of control

Cc1ccc(-c2csc(NC(=O)CC(=O)N/N=C/c3ccc(N(CCCl)CCCl)cc3C)n2)cc1
inactive: [8] 112 % of control | [9] 88 % of control | [10] 93 % of control

NOCCCCCCON
inactive: [11] 95 % of control | [12] 97 % of control | [13] 95 % of control

CCOC1=CC(=O)CCC1
inactive: [14] 98 % of control | [15] 94 % of control | [11] 98 % of control | [16] 100 % of control | [12] 110 % of control | [13] 101 % of control

CCOC(=O)c1ccc(Nc2sc(C(=O)c3ccc(C)cc3C)c(N)c2C#N)cc1
inactive: dose: 100.0 mg/kg/injection, schedule: Q04DX002 (ip), vehicle: gum acacia 89 % of control | dose: 200.0 mg/kg/injection, schedule: Q04DX002 (ip), vehicle: gum acacia 92 % of control | dose: 400.0 mg/kg/injection, schedule: Q04DX002 (ip), vehicle: gum acacia 99 % of control

C[N+](C)(N)Cc1ccc(C[N+](C)(C)N)cc1
inactive: dose: 100.0 mg/kg/injection, schedule: Q04DX002 (ip), vehicle: saline 108 % of control | dose: 200.0 mg/kg/injection, schedule: Q04DX002 (ip), vehicle: saline 97 % of control

Nc1c(Cl)c(Cl)nc(C(=O)O)c1Cl
inactive: dose: 6.25 mg/kg/injection, schedule: Q01DX009 (ip), vehicle: Klucel (hydroxypropylcellulose) (HPC) 98 % of control | dose: 12.5 mg/kg/injection, schedule: Q01DX009 (ip), vehicle: Klucel (hydroxypropylcellulose) (HPC) 98 % of control | [17] 100 % of control | [18] 95 % of control | [19] 97 % of control

c1coc(CCc2nc3ccccc3[nH]2)c1
inactive: [17] 121 % of control | [18] 116 % of control | [20] 96 % of control | [19] 100 % of control | [21] 100 % of control

O=C1Cc2ccccc2CN1
inactive: dose: 75.0 mg/kg/injection, schedule: Q01DX001 (ip), vehicle: acetone 100 % of control | dose: 150.0 mg/kg/injection, schedule: Q01DX001 (ip), vehicle: acetone 97 % of control

ClCCOC(OCCCl)OCCCl
inactive: [6] 105 % of control | [7] 103 % of control | [22] 87 % of control | dose: 200.0 mg/kg/injection, schedule: Q04DX003 (ip), vehicle: saline with Tween-80 104 % of control | dose: 400.0 mg/kg/injection, schedule: Q04DX003 (ip), vehicle: saline with Tween-80 95 % of control

NC(=O)c1ccccc1I
inactive: [23] 101 % of control | dose: 75.0 mg/kg/injection, schedule: Q01DX009 (ip), vehicle: saline 103 % of control | dose: 150.0 mg/kg/injection, schedule: Q01DX001 (ip), vehicle: saline 96 % of control | dose: 150.0 mg/kg/injection, schedule: Q01DX009 (ip), vehicle: saline 86 % of control | dose: 300.0 mg/kg/injection, schedule: Q01DX001 (ip), vehicle: saline 96 % of control | dose: 300.0 mg/kg/injection, schedule: Q01DX009 (ip), vehicle: saline 100 % of control

CC1CC=C(/C=N\NC(=O)c2ccc[n+](C)c2)C(C)O1 (stereo unspecified)
inactive: [5] 96 % of control | [6] 96 % of control | [22] 93 % of control

CC1(OC(=O)c2ccccc2)C2C=CC1C1C(=O)NC12 (stereo unspecified)
inactive: [18] 87 % of control | [20] 106 % of control | [19] 102 % of control | [21] 102 % of control | dose: 400.0 mg/kg/injection, schedule: Q01DX009 (ip), vehicle: Klucel (hydroxypropylcellulose) (HPC) 104 % of control | dose: 400.0 mg/kg/injection, schedule: Q04DX003 (ip), vehicle: Klucel (hydroxypropylcellulose) (HPC) 96 % of control

CCOC(CC)OCC
inactive: [1] 97 % of control | [2] 103 % of control | [3] 94 % of control

Nc1nc(N)c2ncn(C3CC(CO)C(O)C3O)c2n1 (stereo unspecified)
inactive: dose: 6.25 mg/kg/injection, schedule: Q01DX009 (ip), vehicle: saline with Tween-80 91 % of control | dose: 12.5 mg/kg/injection, schedule: Q01DX009 (ip), vehicle: saline with Tween-80 98 % of control | [4] 102 % of control

CCOC(=O)C(=Cc1csc2ccccc12)C(=O)OCC
inactive: [8] 92 % of control | [9] 94 % of control | [10] 94 % of control

CC(C)(C)NC(=O)Oc1ccc2ccccc2c1
inactive: dose: 100.0 mg/kg/injection, schedule: Q01DX009 (ip), vehicle: other 96 % of control | dose: 200.0 mg/kg/injection, schedule: Q01DX009 (ip), vehicle: other 102 % of control | dose: 400.0 mg/kg/injection, schedule: Q01DX009 (ip), vehicle: other 100 % of control

CC1(C)SC2C(NC(=O)C(C(=O)O)c3ccccc3)C(=O)N2C1C(=O)O (stereo unspecified)
inactive: dose: 25.0 mg/kg/injection, schedule: Q01DX009 (ip), vehicle: saline 103 % of control | dose: 50.0 mg/kg/injection, schedule: Q01DX001 (ip), vehicle: saline 107 % of control | [14] 103 % of control | [1] 95 % of control | [15] 100 % of control and 101 % of control | [2] 102 % of control | [16] 105 % of control | [3] 101 % of control | dose: 400.0 mg/kg/injection, schedule: Q01DX009 (ip), vehicle: saline 100 % of control

Oc1ccccc1C=NCCN=Cc1ccccc1O.[Ni]
inactive: dose: 88.0 mg/kg/injection, schedule: Q01DX001 (ip), vehicle: other 109 % of control | dose: 100.0 mg/kg/injection, schedule: Q01DX001 (ip), vehicle: other 100 % of control | dose: 133.0 mg/kg/injection, schedule: Q01DX001 (ip), vehicle: other 107 % of control | dose: 200.0 mg/kg/injection, schedule: Q01DX001 (ip), vehicle: other 108 % of control

CCCC(C)NCCOC(=O)c1ccc(N)cc1 (stereo unspecified)
inactive: [23] 95 % of control
